Test results from article PMC8480901 (PLoS ONE, 2021).
“And” between values parts separate entries of the source, which are not always exact repeats. Equal values may be shown once.

Assays:
[1] = test system: TNF-α, IL-6, IL-1β, GM-CSF, CXCL-1, CXCL-2, CCL-2 and MMP-9 in lung tissue; test: LPS-induced cytokines, chemokines and MMP-9 in mouse lung homogenates (Luminex, ELISA); conditions: for CCL2 % reduction / CXCL1 % reduction / CXCL2 % reduction / GM-CSF % reduction / IL-1β % reduction / IL-6 % reduction / MMP9 % reduction / TNFα % reduction / CCL2 / CXCL1 / CXCL2 / GM-CSF / IL-1β / IL-6 / MMP9 / TNFα / CCL2 Mean / CXCL1, Mean / CXCL2, Mean / GM-CSF Mean / IL-1β Mean / IL-6 Mean / MMP9, Mean / TNFα Mean: lung homogenate, LPS; for CCL2 / CXCL1 / CXCL2 / GM-CSF / IL-1β / IL-6 / MMP9 / TNFα: individual animal, listed as Azi; for CCL2 Mean / CXCL1, Mean / CXCL2, Mean / GM-CSF Mean / IL-1β Mean / IL-6 Mean / MMP9, Mean / TNFα Mean: mean of 8
Description: To induce pulmonary neutrophilia, mice in the control group received intranasal (IN) 50 μL saline, and all other animals received 5 μg LPS/50 μL saline IN per mouse.
After bronchoalveolar lavage, lungs were removed, weighed, snap frozen, and stored at −80°C until analysis. To homogenize the tissue, the frozen lungs were thawed and placed in Precellys CK28 Hard Tissue tubes (BERTIN Instruments, Montigny-le-Bretonneux, France) in 1 mL PBS (Gibco, Life Technologies, Paisley, UK) supplemented with protease inhibitors (Halt™ Protease Inhibitor Cocktail [100×]; Thermo Fisher Scientific, Rockford, IL, USA). A Precellys homogenizer (BERTIN Instruments) was used, shaking at 6800 rpm for three 30-second pulses separated by 15-second pauses. After homogenization, samples were centrifuged at 18,000×g for 10 minutes at 4°C, and the supernatants were collected for analysis.
Concentrations of tumor necrosis factor (TNF)-α, IL-6, granulocyte-macrophage colony-stimulating factor (GM-CSF), chemokine (C-X-C motif) ligand (CXCL)-1, CXCL-2, and chemokine (C-C motif) ligand (CCL)-2 in mouse lung homogenates were analyzed with the Mouse Premixed Multi-Analyte Kit (R&D Systems, Minneapolis, MN, USA) per the manufacturer’s protocol and using a Luminex 200 System (Luminex Corporation, Austin, TX, USA). Cytokine and chemokine concentrations were determined from blank-corrected median fluorescence intensity of each sample via xPONENT® software (Luminex Corporation), interpolating from standard curves generated with a 5-parameter logistic curve-fit.
Mouse Total MMP (matrix metalloprotease)-9 and IL-1β/IL-1F2 DuoSet ELISA (enzyme-linked immunosorbent assay) kits (R&D Systems) were used to measure concentrations of MMP-9 and IL-1β, respectively, in lung homogenates per the manufacturer’s protocols. Absorbance at 450 nm was measured using the SpectraMax i3 (Molecular Devices, San Jose, CA, USA). Concentrations of MMP-9 and IL-1β in samples were determined by interpolation from standard curves.
Differences between treated versus vehicle groups were determined using the Mann-Whitney test and were considered statistically significant when P<0.05. Outliers in the analysis of cytokine and chemokine concentrations were identified using the Grubbs test. No criteria were set for inclusion/exclusion of animals during the experiment or data points during the analysis.

human PBMCs = test: Cytotoxicity in human PBMCs (adenylate kinase release, ToxiLight); format: cell-based; conditions: PBMCs; ≤100 μM
Description: The effect of t est compounds on cell viabilit y of J 774.2 macrophages and human PBMCs […]
was determined b y comp aring th e aden yl ate kinas e signal obtain ed in the p resence of diff er ent concentrations of compounds with those obtained in DMSO (vehicle) control. Signals were […]
divided,and the results were ex pressed as fold-change versus v ehicle con trol .

[2] = cited from earlier work
[3] = all doses (10, 30, 100 mg/kg SC)

CC[C@H]1OC(=O)[C@H](C)[C@@H](O[C@H]2C[C@@](C)(OC)[C@@H](O)[C@H](C)O2)[C@H](C)[C@@H](O[C@@H]2O[C@H](C)C[C@H](N(C)C)[C@H]2O)[C@](C)(O)C[C@@H](C)CN(C)[C@H](C)[C@@H](O)[C@]1(C)O [Azithromycin]
TNF-α concentrations in lung homogenate ([1]; 100 mg/kg SC): no significant effect
TNF-α concentrations in lung homogenate ([1]; 10 and 30 mg/kg SC): significant reductions
IL-1β concentrations in lung homogenate [1, 3]: reduced
MMP-9 levels in lung homogenate [1, 3]: not as pronounced as with lefamulin
chemokines and GM-CSF in lung homogenate [1, 3]: significant but not as pronounced
IL-6 concentrations in lung homogenate ([1]; all doses tested (10, 30, 100 mg/kg SC), vs vehicle control): reduced to a lesser extent
IL-1β concentrations in lung homogenate ([1]; lowest dose (10 mg/kg SC)): significant reduction
CCL2 % reduction ([1]; 10 mg/kg): 36%
CXCL1 % reduction ([1]; 10 mg/kg): 44%
CXCL2 % reduction ([1]; 10 mg/kg): 41%
GM-CSF % reduction ([1]; 10 mg/kg): 44%
IL-1β % reduction ([1]; 10 mg/kg): 13%
IL-6 % reduction ([1]; 10 mg/kg): 51%
MMP9 % reduction ([1]; 10 mg/kg): 16%
TNFα % reduction ([1]; 10 mg/kg): 61%
CCL2 ([1]; 10 mg/kg): 4556.27 pg/mL and 3263.22 pg/mL and 1456.64 pg/mL and 3309.90 pg/mL and 1430.47 pg/mL and 5875.00 pg/mL and 1417.32 pg/mL and 3315.08 pg/mL
CXCL1 ([1]; 10 mg/kg): 8286.02 pg/mL and 7278.90 pg/mL and 5769.98 pg/mL and 6100.99 pg/mL and 6284.84 pg/mL and 12400.64 pg/mL and 5305.93 pg/mL and 5666.95 pg/mL
CXCL2 ([1]; 10 mg/kg): 7643.01 pg/mL and 7085.07 pg/mL and 4631.04 pg/mL and 5712.04 pg/mL and 6677.58 pg/mL and 11079.57 pg/mL and 4412.48 pg/mL and 8631.64 pg/mL
GM-CSF ([1]; 10 mg/kg): 139.66 pg/mL and 134.35 pg/mL and 75.54 pg/mL and 114.95 pg/mL and 86.88 pg/mL and 293.40 pg/mL and 92.13 pg/mL and 119.35 pg/mL
IL-1β ([1]; 10 mg/kg): 8824 pg/mL and 7408 pg/mL and 8108 pg/mL and 9841 pg/mL and 7312 pg/mL and 9969 pg/mL and 10254 pg/mL and 14453 pg/mL
IL-6 ([1]; 10 mg/kg): 703.95 pg/mL and 429.86 pg/mL and 475.85 pg/mL and 521.70 pg/mL and 613.04 pg/mL and 952.23 pg/mL and 337.40 pg/mL and 749.27 pg/mL
MMP9 ([1]; 10 mg/kg): 2413 pg/mL and 1880 pg/mL and 2467 pg/mL and 2045 pg/mL and 2015 pg/mL and 1705 pg/mL and 1966 pg/mL
TNFα ([1]; 10 mg/kg): 468.82 pg/mL and 365.25 pg/mL and 396.22 pg/mL and 281.21 pg/mL and 385.93 pg/mL and 406.49 pg/mL and 646.25 pg/mL and 400.08 pg/mL
CCL2 Mean ([1]; 10 mg/kg): 3078 pg/mL
CXCL1, Mean ([1]; 10 mg/kg): 7137 pg/mL
CXCL2, Mean ([1]; 10 mg/kg): 6984 pg/mL
GM-CSF Mean ([1]; 10 mg/kg): 132 pg/mL
IL-1β Mean ([1]; 10 mg/kg): 9521 pg/mL
IL-6 Mean ([1]; 10 mg/kg): 598 pg/mL
MMP9, Mean ([1]; 10 mg/kg): 2113 pg/mL
TNFα Mean ([1]; 10 mg/kg): 419 pg/mL
CCL2 % reduction ([1]; 30 mg/kg): 89%
CXCL1 % reduction ([1]; 30 mg/kg): 62%
CXCL2 % reduction ([1]; 30 mg/kg): 66%
GM-CSF % reduction ([1]; 30 mg/kg): 77%
IL-1β % reduction ([1]; 30 mg/kg): 12%
IL-6 % reduction ([1]; 30 mg/kg): 89%
MMP9 % reduction ([1]; 30 mg/kg): 27%
TNFα % reduction ([1]; 30 mg/kg): 77%
CCL2 ([1]; 30 mg/kg): 1476.16 pg/mL and 999.58 pg/mL and 556.20 pg/mL and 527.89 pg/mL and 1875.36 pg/mL and 690.08 pg/mL and 698.62 pg/mL and 781.98 pg/mL
CXCL1 ([1]; 30 mg/kg): 6439.29 pg/mL and 6623.20 pg/mL and 4431.51 pg/mL and 4192.30 pg/mL and 6910.31 pg/mL and 3755.15 pg/mL and 2835.10 pg/mL and 5401.78 pg/mL
CXCL2 ([1]; 30 mg/kg): 7207.48 pg/mL and 4769.86 pg/mL and 3209.88 pg/mL and 2485.22 pg/mL and 5075.82 pg/mL and 2214.38 pg/mL and 1941.44 pg/mL and 6143.97 pg/mL
GM-CSF ([1]; 30 mg/kg): 74.67 pg/mL and 53.86 pg/mL and 46.96 pg/mL and 43.52 pg/mL and 113.19 pg/mL and 45.24 pg/mL and 48.68 pg/mL and 57.31 pg/mL
IL-1β ([1]; 30 mg/kg): 7544 pg/mL and 10213 pg/mL and 8353 pg/mL and 7459 pg/mL and 10985 pg/mL and 8847 pg/mL and 13576 pg/mL and 10376 pg/mL
IL-6 ([1]; 30 mg/kg): 510.25 pg/mL and 452.87 pg/mL and 220.67 pg/mL and 149.74 pg/mL and 314.17 pg/mL and 173.48 pg/mL and 475.85 pg/mL
MMP9 ([1]; 30 mg/kg): 1204 pg/mL and 2421 pg/mL and 1943 pg/mL and 1913 pg/mL and 2288 pg/mL and 1939 pg/mL and 1874 pg/mL and 1816 pg/mL
TNFα ([1]; 30 mg/kg): 463.76 pg/mL and 597.19 pg/mL and 177.73 pg/mL and 146.70 pg/mL and 109.09 pg/mL and 202.71 pg/mL and 129.48 pg/mL
CCL2 Mean ([1]; 30 mg/kg): 951 pg/mL
CXCL1, Mean ([1]; 30 mg/kg): 5074 pg/mL
CXCL2, Mean ([1]; 30 mg/kg): 4131 pg/mL
GM-CSF Mean ([1]; 30 mg/kg): 60 pg/mL
IL-1β Mean ([1]; 30 mg/kg): 9669 pg/mL
IL-6 Mean ([1]; 30 mg/kg): 306 pg/mL
MMP9, Mean ([1]; 30 mg/kg): 1925 pg/mL
TNFα Mean ([1]; 30 mg/kg): 245 pg/mL
CCL2 % reduction ([1]; 100 mg/kg): 80%
CXCL1 % reduction ([1]; 100 mg/kg): 24%
CXCL2 % reduction ([1]; 100 mg/kg): 11%
GM-CSF % reduction ([1]; 100 mg/kg): 67%
IL-1β % reduction ([1]; 100 mg/kg): 12%
IL-6 % reduction ([1]; 100 mg/kg): 8%
MMP9 % reduction ([1]; 100 mg/kg): 24%
TNFα % reduction ([1]; 100 mg/kg): 36%
CCL2 ([1]; 100 mg/kg): 3799.67 pg/mL and 664.18 pg/mL and 1172.90 pg/mL and 962.12 pg/mL and 765.59 pg/mL and 1437.03 pg/mL and 877.71 pg/mL and 698.62 pg/mL
CXCL1 ([1]; 100 mg/kg): 20237.00 pg/mL and 6969.24 pg/mL and 8733.13 pg/mL and 8755.54 pg/mL and 6380.45 pg/mL and 8935.00 pg/mL and 8591.33 pg/mL and 8085.43 pg/mL
CXCL2 ([1]; 100 mg/kg): 18077.64 pg/mL and 6817.72 pg/mL and 11394.66 pg/mL and 9108.54 pg/mL and 6682.24 pg/mL and 11221.65 pg/mL and 9678.57 pg/mL and 10364.59 pg/mL
GM-CSF ([1]; 100 mg/kg): 162.70 pg/mL and 67.71 pg/mL and 85.13 pg/mL and 72.93 pg/mL and 64.24 pg/mL and 90.38 pg/mL and 45.24 pg/mL
IL-1β ([1]; 100 mg/kg): 6686 pg/mL and 8985 pg/mL and 9690 pg/mL and 9020 pg/mL and 8022 pg/mL and 10797 pg/mL and 10826 pg/mL and 12960 pg/mL
IL-6 ([1]; 100 mg/kg): 2378.14 pg/mL and 464.36 pg/mL and 635.80 pg/mL and 669.91 pg/mL and 567.42 pg/mL and 703.95 pg/mL and 884.75 pg/mL and 1176.18 pg/mL
MMP9 ([1]; 100 mg/kg): 1836 pg/mL and 1554 pg/mL and 2200 pg/mL and 2220 pg/mL and 2073 pg/mL and 2366 pg/mL and 1528 pg/mL and 2063 pg/mL
TNFα ([1]; 100 mg/kg): 660.88 pg/mL and 1126.83 pg/mL and 249.05 pg/mL and 935.87 pg/mL and 855.56 pg/mL and 270.54 pg/mL and 656.01 pg/mL and 675.49 pg/mL
CCL2 Mean ([1]; 100 mg/kg): 1297 pg/mL
CXCL1, Mean ([1]; 100 mg/kg): 9586 pg/mL
CXCL2, Mean ([1]; 100 mg/kg): 10418 pg/mL
GM-CSF Mean ([1]; 100 mg/kg): 83 pg/mL
IL-1β Mean ([1]; 100 mg/kg): 9623 pg/mL
IL-6 Mean ([1]; 100 mg/kg): 935 pg/mL
MMP9, Mean ([1]; 100 mg/kg): 1980 pg/mL
TNFα Mean ([1]; 100 mg/kg): 679 pg/mL
cytotoxic effects (human PBMCs): no cytotoxic effects
increase in AUC, first to fifth daily dose ([2]; 500 mg IV daily): 61%
increase in maximum observed plasma concentration, first to fifth daily dose ([2]; 500 mg IV daily): 8%
plasma exposure (AUC) ([2]; 500-mg IV 3-hour infusion, healthy volunteers): 5000 ng·h/mL
